Source: US9278994B2, “Short antimicrobial lipopeptides” (Helix BioMedix Inc., priority 2012, dated 2016)
In brackets after ≈: the same amount, converted by molar mass. Where a SMILES comes first, the peptide text is derived from it. [ ]: non-standard residue; d: D form. The star is where a group is joined. Palmitoyl = CCCCCCCCCCCCCCCC(=O)*

Experiments:
C. albicans 105 = system: C. albicans 105
Procedure: (§1) We conducted the minimal inhibitory concentration (MIC) determination using CLSI (Clinical and Laboratory standard Institute) recommended standard protocol for antimicrobials (Methods for Dilution Antimicrobial Susceptibility Tests for Bacteria That Grow Aerobically; Approved Standard—Ninth Edition).
(§2) 2. Bacterial strains and culture conditions. E. coli UB1005, S. aureus SAP0017 (MRSA) and C. albicans 105 were grown in Mueller Hinton (MH) (Difco, BD Biosciences, MD) agar plates and broth (2 g of beef extract, 17.5 g of acid hydrolysis of casein and 1.5 g of starch per liter) at 37° C. unless otherwise indicated. Bacteria from frozen stock were subcultured onto freshly made MH agar plates prior to susceptibility testing. For P. acnes, the bacterium was grown in BBL™ Brain-Heart infusion (Becton, Dickinson & Company, Sparks Md.) broth or agar plates at 37° C. in anaerobic condition generated using a anaerobic jar and AnaeroGen™ (Oxoid, Basingstoke, Hampshire, England).
(§3) 3. […] The minimal inhibitory concentration (MIC) of each peptide was determined using modified CLSI microtiter broth dilution assay (Methods for Dilution Antimicrobial Susceptibility Tests for Bacteria That Grow Aerobically; Approved Standard—Ninth Edition). An inoculum of 10^5-10^6 colony forming units (CFU)/ml was used or 10^4 CFU/ml for yeast. The MIC value was taken as the lowest peptide concentration at which more than 90% of microbial growth was inhibited after 15 to 20 h of incubation at 37° C. For P. acnes, the incubation was kept under anaerobic condition at 37° C. for 2 weeks before MIC was determined Kill kinetics was performed using a given concentration (about 2-5-fold MIC) of peptide mixed with indicator microorganism. After appropriate dilution the cells were plated on agar plates after defined time intervals and incubated at 37° C. overnight. In the case of P. acnes an extended incubation period was required. The CFU was counted and plotted as survival of bacteria after peptide treatment over time, which indicates the effectiveness of a peptide to kill a microbe.

E. coli UB1005 = system: E. coli UB1005
Procedure: as §1, §2, §3

S. aureus SAP0017 (MRSA) = system: S. aureus SAP0017 (MRSA)
Procedure: as §1, §2, §3

P. acnes = type: cell-based, Propionibacterium acnes
Procedure: as §2, §3

human dermal fibroblasts = experiment: Gene profiling (PCR array of extracellular matrix adhesion molecule genes); type: cell-based; conditions: 5 μg/ml, 24 h; up (+) or down (−) regulation
Procedure: 5. Gene profiling analysis. The 84 genes encoding extracellular matrix adhesion molecules in human dermal fibroblasts were analyzed using PCR arrays conducted by Sunny Biodiscovery, Inc (Santa Paula, Calif.). Human dermal fibroblasts were from Zen-Bio, Research Triangle Park, N.C. (cat. #DF-F, lot #DFMF112410). […] At the end of the incubation cells were observed under the inverted Nikon TS microscope.
At the end of the incubation period cells were preserved in RNAlater solution (Ambion, Austin, Tex.) for 6 h. RNA was extracted and purified with NucleoSpin RNA II kit from Machery-Nagel, Bethleem, Pa.). Purified total RNA was assessed at 230 nm, 260 nm and 280 nm with Agilent HP-8452A diode array spectrophotometer. The concentration of RNA was equalized across the samples and the expression of genes of interest was measured by real-time quantitative PCR with BioRad iCycler iQ Detection System using PCR arrays PAHS-013A (www.sabiosciences.com/rt_pcr_product/HTML/PAHS-013A.html), with 1st strand synthesis kit, SYBR Green master mix and PCR running conditions from Qiagen (formerly SA Biosciences). Efficiency ΔΔCt method was used for quantification of results, after the normalization of gene expression to 5 housekeeping genes carried with the RT2 Profiler PCR Array Data Analysis version 3.5 software.

[1] = system: P. acnes, S. aureus, E. coli and C. albicans; experiment: MIC / antimicrobial activity; type: cell-based; conditions: summary of MIC results of Table 1
Procedure: as §2, §3

[2] = system: EpiDerm (EPI-200) skin tissue; experiment: Skin tissue toxicity, EpiDerm skin model with MTT assay; type: cell-based; conditions: tissue viability (MTT), treated 20 hr
Procedure: 4. Skin tissue toxicity determination. Skin toxicity and compatibility was determined using EpiDerm (EPI-200) skin tissue and MTT Kit (MTT-100) (MatTek, Ashland, Mass.) according to the manufacture's instruction. 1% Triton X-100 and PBS were used as positive (toxic) and negative (non-toxic) control, respectively.
Potential for dermal irritancy of the lipodipeptides was tested using EpiDerm™ Skin Model (MatTek, Ashland, Mass.) in combination with a modified MTT assay. […] EpiDerm™ consists of organized basal, spinous, granular, and cornified layers analogous to those found in vivo. The tissues were treated with each compound at desired concentration for 20 hr.

CCCCCCCCCCCCCCCC(=O)N[C@@H](CCCCN)C(=O)N[C@@H](Cc1c[nH]cn1)C(N)=O [HB2242, Pal-KH-NH2]
MIC C. albicans (C. albicans 105): 16 µg/mL (≈ 30.7 µM)
MIC E. coli (E. coli UB1005): 16 µg/mL (≈ 30.7 µM)
MIC S. aureus (S. aureus SAP0017 (MRSA)): 4 µg/mL (≈ 7.68 µM)
MIC P. acnes (P. acnes): 1 to 2 µg/mL
Fold change (peptide vs. PBS control) ADAMTS (human dermal fibroblasts): 4.7899 Fold change
Fold change (peptide vs. PBS control) CDH1 (human dermal fibroblasts): 1.9725 Fold change
Fold change (peptide vs. PBS control) COL1A1 (human dermal fibroblasts): 1.1975 Fold change
Fold change (peptide vs. PBS control) COL8A1 (human dermal fibroblasts): −1.4044 Fold change
Fold change (peptide vs. PBS control) HAS1 (human dermal fibroblasts): −2.3295 Fold change
Fold change (peptide vs. PBS control) ITGA6 (human dermal fibroblasts): −1.014 Fold change
Fold change (peptide vs. PBS control) ITGA7 (human dermal fibroblasts): −2.0279 Fold change
Fold change (peptide vs. PBS control) ITGB2 (human dermal fibroblasts): 1.3947 Fold change
Fold change (peptide vs. PBS control) KAL1 (human dermal fibroblasts): 1.8404 Fold change
Fold change (peptide vs. PBS control) MMP1 (human dermal fibroblasts): 1.7171 Fold change
Fold change (peptide vs. PBS control) MMP8 (human dermal fibroblasts): −1.6472 Fold change
Fold change (peptide vs. PBS control) MMP9 (human dermal fibroblasts): −1.6472 Fold change
Fold change (peptide vs. PBS control) MMP10 (human dermal fibroblasts): 1.2142 Fold change
Fold change (peptide vs. PBS control) MMP13 (human dermal fibroblasts): −2.4967 Fold change
Fold change (peptide vs. PBS control) MMP14 (human dermal fibroblasts): 1.2142 Fold change
Fold change (peptide vs. PBS control) SELE (human dermal fibroblasts): 1.3947 Fold change
Fold change (peptide vs. PBS control) THBS3 (human dermal fibroblasts): −3.0738 Fold change
antimicrobial activity (in words) [1]: broad spectrum antimicrobial activity

CCCCCCCCCCCCCCCC(=O)N[C@@H](CCCCN)C(=O)N[C@H](C(N)=O)[C@@H](C)CC [HB2246, Pal-KI-NH2]
MIC C. albicans (C. albicans 105): >2000 µg/mL
MIC E. coli (E. coli UB1005): >2000 µg/mL
MIC S. aureus (S. aureus SAP0017 (MRSA)): 128 µg/mL (≈ 258 µM)
MIC P. acnes (P. acnes): >2000 µg/mL
antimicrobial activity (in words) [1]: more Gram-positive selective activity

CCCCCCCCCCCCCCCC(=O)N[C@@H](CCCCN)C(=O)N1CCC[C@@H]1C(N)=O [HB2203, Pal-K-dP-NH2] (Palmitoyl-Lys-[dP]-NH2)
MIC C. albicans (C. albicans 105): 16 µg/mL (≈ 33.3 µM)
MIC E. coli (E. coli UB1005): 128 µg/mL (≈ 266 µM)
MIC S. aureus (S. aureus SAP0017 (MRSA)): 8 µg/mL (≈ 16.6 µM)
MIC P. acnes (P. acnes): 1 to 2 µg/mL
Toxicity EpiDerm [2]: >2000 µg/mL

CCCCCCCCCCCCCCCC(=O)N[C@@H](CCCCN)C(=O)N1CCC[C@H]1C(N)=O [HB2202, Pal-KP-NH2] (Palmitoyl-Lys-Pro-NH2)
MIC C. albicans (C. albicans 105): 16 µg/mL (≈ 33.3 µM)
MIC E. coli (E. coli UB1005): 64 µg/mL (≈ 133 µM)
MIC S. aureus (S. aureus SAP0017 (MRSA)): 16 µg/mL (≈ 33.3 µM)
MIC P. acnes (P. acnes): 1 µg/mL (≈ 2.08 µM)
Toxicity EpiDerm [2]: >2000 µg/mL

CCCCCCCCCCCCCCCC(=O)N[C@@H](CCCCN)C(=O)NCC(N)=O [HB2243, Pal-KG-NH2] (Palmitoyl-Lys-Gly-NH2)
MIC C. albicans (C. albicans 105): >2000 µg/mL
MIC E. coli (E. coli UB1005): >2000 µg/mL
MIC S. aureus (S. aureus SAP0017 (MRSA)): 250 µg/mL (≈ 567 µM)
MIC P. acnes (P. acnes): 32 to 64 µg/mL
antimicrobial activity (in words) [1]: more Gram-positive selective activity

CC(C)[C@H](NC(=O)[C@@H]1CCCN1C(=O)[C@@H](N)CCCCN)C(N)=O [HB2068, KPV-NH2, reference compound] (H-Lys-Pro-Val-NH2)
MIC C. albicans (C. albicans 105): >2000 µg/mL
MIC E. coli (E. coli UB1005): >2000 µg/mL
MIC S. aureus (S. aureus SAP0017 (MRSA)): >2000 µg/mL
MIC P. acnes (P. acnes): >2000 µg/mL
Toxicity EpiDerm [2]: >2000 µg/mL

CCCCCCCCCCCCCCCC(=O)N[C@@H](CCCCN)C(=O)N1CCC[C@H]1C(=O)O [HB2257, Pal-KP-OH] (Palmitoyl-Lys-Pro-OH)
MIC C. albicans (C. albicans 105): >2000 µg/mL
MIC E. coli (E. coli UB1005): >2000 µg/mL
MIC S. aureus (S. aureus SAP0017 (MRSA)): >2000 µg/mL
MIC P. acnes (P. acnes): >2000 µg/mL
antimicrobial activity (in words) [1]: inactive

CCCCCCCCCCCCCCCC(=O)N[C@@H](CCCCN)C(=O)N1CCC[C@H]1C(=O)N[C@H](C(=O)O)C(C)C [HB2184, Pal-KPV-OH] (Palmitoyl-Lys-Pro-Val-OH)
MIC C. albicans (C. albicans 105): >2000 µg/mL
MIC E. coli (E. coli UB1005): >2000 µg/mL
MIC S. aureus (S. aureus SAP0017 (MRSA)): >2000 µg/mL
MIC P. acnes (P. acnes): 8 µg/mL (≈ 13.8 µM)
antimicrobial activity (in words) [1]: less active or inactive

CCCCCCCCCCCCCCCC(=O)N[C@@H](CCCCN)C(=O)N1CCC[C@@H]1C(=O)N[C@H](C(=O)O)[C@@H](C)O [HB2182, Pal-KdPT-OH] (Palmitoyl-Lys-[dP]-Thr-OH)
MIC C. albicans (C. albicans 105): >2000 µg/mL
MIC E. coli (E. coli UB1005): >2000 µg/mL
MIC S. aureus (S. aureus SAP0017 (MRSA)): >2000 µg/mL
MIC P. acnes (P. acnes): 32 µg/mL (≈ 54.9 µM)
antimicrobial activity (in words) [1]: less active or inactive

CCCCCCCCCCCCCCCC(=O)N[C@@H](CCCCN)C(=O)N[C@@H](CC(C)C)C(N)=O [HB2244, Pal-KL-NH2] (Palmitoyl-Lys-Leu-NH2)
MIC C. albicans (C. albicans 105): >2000 µg/mL
MIC E. coli (E. coli UB1005): >2000 µg/mL
MIC S. aureus (S. aureus SAP0017 (MRSA)): 250 µg/mL (≈ 503 µM)
MIC P. acnes (P. acnes): 8 µg/mL (≈ 16.1 µM)
antimicrobial activity (in words) [1]: more Gram-positive selective activity

CCCCCCCCCCCCCCCC(=O)N[C@@H](CCCCN)C(=O)N[C@@H](CCCNC(=N)N)C(N)=O [HB2259, Pal-KR-NH2] (Palmitoyl-Lys-Arg-NH2)
MIC C. albicans (C. albicans 105): 16 µg/mL (≈ 29.6 µM)
MIC E. coli (E. coli UB1005): 8 µg/mL (≈ 14.8 µM)
MIC S. aureus (S. aureus SAP0017 (MRSA)): 2 µg/mL (≈ 3.71 µM)
MIC P. acnes (P. acnes): <1 µg/mL
Fold change (peptide vs. PBS control) ADAMTS (human dermal fibroblasts): 2.4284 Fold change
Fold change (peptide vs. PBS control) CDH1 (human dermal fibroblasts): 1.0718 Fold change
Fold change (peptide vs. PBS control) COL1A1 (human dermal fibroblasts): −1.8661 Fold change
Fold change (peptide vs. PBS control) COL8A1 (human dermal fibroblasts): −2.5847 Fold change
Fold change (peptide vs. PBS control) HAS1 (human dermal fibroblasts): −3.0314 Fold change
Fold change (peptide vs. PBS control) ITGA2 (human dermal fibroblasts): 1.3195 Fold change
Fold change (peptide vs. PBS control) ITGA7 (human dermal fibroblasts): −1.8661 Fold change
Fold change (peptide vs. PBS control) ITGB2 (human dermal fibroblasts): 2.1435 Fold change
Fold change (peptide vs. PBS control) KAL1 (human dermal fibroblasts): 1.2311 Fold change
Fold change (peptide vs. PBS control) MMP1 (human dermal fibroblasts): 1.1487 Fold change
Fold change (peptide vs. PBS control) MMP8 (human dermal fibroblasts): 2.1435 Fold change
Fold change (peptide vs. PBS control) MMP9 (human dermal fibroblasts): −2.1435 Fold change
Fold change (peptide vs. PBS control) MMP10 (human dermal fibroblasts): 1.6245 Fold change
Fold change (peptide vs. PBS control) MMP13 (human dermal fibroblasts): −3.249 Fold change
Fold change (peptide vs. PBS control) MMP14 (human dermal fibroblasts): −2.4623 Fold change
Fold change (peptide vs. PBS control) SELE (human dermal fibroblasts): 1.0718 Fold change
Fold change (peptide vs. PBS control) THBS3 (human dermal fibroblasts): −1.6245 Fold change
antimicrobial activity (in words) [1]: broad spectrum antimicrobial activity
